Test results taken from patent US6706663B2, “Herbicidal 3-heterocyclic substituted benzisothiazole and benzisoxazole compounds” (Wyeth, priority 2000, dated 2004).

How the values were obtained:
[1] = test system: ABUTH (Abutilon theophrasti); assay: Postemergence herbicidal evaluation; format: in vivo, Medic.
Method in brief: (§1)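 Seedlings grown for about two weeks were sprayed postemergence and then kept under standard greenhouse care. Injury was rated visually 4–5 weeks after treatment on a 0–9 scale against untreated controls, and ratings from repeat tests were averaged.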

ORYSAT (Rice, Tebonnet) = assay: Preemergence herbicidal evaluation; format: in vivo, Oryza sativa, (L.) Tebonnet; conditions: preemergence, rated 4-5 weeks after treatment
GALAP (Galium aparine) [2] = assay: Preemergence herbicidal evaluation; format: in vivo; conditions: preemergence, rated 4-5 weeks after treatment
Method in brief: (§2)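 Test compound is applied in aqueous acetone to cups just after seeding. Cups are watered and maintained on greenhouse benches. Each cup is scored 0–9 by eye relative to a control after four to five weeks.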

[3] = test system: CYPSE (Cyperus serotinus); assay: Flooded paddy, preemergence weed control; format: in vivo, Rottb.; conditions: rated 3-4 weeks after treatment, 0-9 rating scale
Method in brief: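 Herbicidal effect was scored visually on a 0–9 scale against an untreated control 3–4 weeks after treatment. Compounds were applied preemergence as 50/50 v/v aqueous/acetone mixtures into flood water (1.5–3 cm deep over silt loam), at roughly 0.0080 to 0.1250 kg/ha active ingredient.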

[4] = test system: IPOHE (Ipomoea hederacea); assay: Preemergence herbicidal evaluation; format: in vivo, (L.) Jacq.; conditions: preemergence, rated 4-5 weeks after treatment
ZEAMX (Corn, Field) [5] = assay: Postemergence herbicidal evaluation; format: in vivo, Zea mays, L.
Method in brief: as §1

GALAP (Galium aparine) [6] = assay: Postemergence herbicidal evaluation; format: in vivo
Method in brief: as §1

[7] = test system: SAGPY (Sagittaria pygmaea); assay: Flooded paddy, preemergence weed control; format: in vivo, L.; conditions: rated 3-4 weeks after treatment, 0-9 rating scale
Method in brief: (§3)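 Ratings of 0-9 reflect visual comparison with a control for stand, vigor, deformity, size, chlorosis and overall look. Propagules were placed in shallow silt loam (top 0.5 cm) under a continuous 1.5–3 cm flood and grown in the greenhouse.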

[8] = test system: TRZAWR (Wheat, Winter, cv Riband); assay: Preemergence herbicidal evaluation; format: in vivo, Triticum aestivum; conditions: preemergence, rated 4-5 weeks after treatment
Method in brief: as §2

[9] = test system: ECHORC (Echinochloa oryzoides); assay: Flooded paddy, preemergence weed control; format: in vivo, Echinochloa oryzoides (Ard.) Fritsch.; conditions: rated 3-4 weeks after treatment, 0-9 rating scale
Method in brief: as §3

[10] = test system: CHEAL (Chenopodium album); assay: Preemergence herbicidal evaluation; format: in vivo, L.; conditions: preemergence, rated 4-5 weeks after treatment
Method in brief: as §2

[11] = test system: AMBEL (Ambrosia artemisifolia); assay: Preemergence herbicidal evaluation; format: in vivo, L.; conditions: preemergence, rated 4-5 weeks after treatment
Method in brief: as §2

[12] = test system: CASOB (Cassia obtusifolia); assay: Preemergence herbicidal evaluation; format: in vivo, L.; conditions: preemergence, rated 4-5 weeks after treatment
Method in brief: as §2

ZEAMX (Corn, Field) [13] = assay: Preemergence herbicidal evaluation; format: in vivo, Zea mays, L.; conditions: preemergence, rated 4-5 weeks after treatment
[14] = test system: GLXMAW (Soybean, Williams); assay: Preemergence herbicidal evaluation; format: in vivo, Glycine max, (L.) Merr. cv Williams; conditions: preemergence, rated 4-5 weeks after treatment
[15] = test system: GLXMAW (Soybean, Williams); assay: Postemergence herbicidal evaluation; format: in vivo, Glycine max, (L.) Merr. cv Williams
Method in brief: as §1

[16] = test system: ECHCG (Echinochloa crus-galli); assay: Postemergence herbicidal evaluation; format: in vivo, (L.) Beau
Method in brief: as §1

[17] = test system: IPOHE (Ipomoea hederacea); assay: Postemergence herbicidal evaluation; format: in vivo, (L.) Jacq.
Method in brief: as §1

[18] = test system: CHEAL (Chenopodium album); assay: Postemergence herbicidal evaluation; format: in vivo, L.
Method in brief: as §1

[19] = test system: AMBEL (Ambrosia artemisifolia); assay: Postemergence herbicidal evaluation; format: in vivo, L.
Method in brief: as §1

[20] = test system: CASOB (Cassia obtusifolia); assay: Postemergence herbicidal evaluation; format: in vivo, L.
Method in brief: as §1

CYPIR (Cyperus iria) = assay: Flooded paddy, preemergence weed control; format: in vivo; conditions: rated 3-4 weeks after treatment, 0-9 rating scale
Method in brief: as §3

Cn1c(C(F)(F)F)cc(=O)n(-c2ccc3snc(-c4ncccn4)c3c2)c1=O [Compound 12, 1-methyl-3-[3-(2-pyrimidinyl)-1,2-benzisothiazol-5-yl]-6-(trifluoromethyl)uracil]
9.0: Postemergence herbicidal rating, ABUTH ([1]; rate 0.0620 kg/ha) | GALAP preemergence herbicidal rating (GALAP (Galium aparine) [2]; Rate 0.2500 kg/ha) | IPOHE preemergence herbicidal rating ([4]; Rate 0.2500 kg/ha) | Postemergence herbicidal rating, GALAP (GALAP (Galium aparine) [6]; rate 0.0620 kg/ha) | TRZAWR preemergence herbicidal rating ([8]; Rate 0.2500 kg/ha) | CHEAL preemergence herbicidal rating ([10]; Rate 0.2500 kg/ha) | AMBEL preemergence herbicidal rating ([11]; Rate 0.2500 kg/ha) | GLXMAW preemergence herbicidal rating ([14]; Rate 0.2500 kg/ha) | Postemergence herbicidal rating, IPOHE ([17]; rate 0.0620 kg/ha) | Postemergence herbicidal rating, CHEAL ([18]; rate 0.0620 kg/ha) | Postemergence herbicidal rating, AMBEL ([19]; rate 0.0620 kg/ha) | Postemergence herbicidal rating, CASOB ([20]; rate 0.0620 kg/ha) | herbicidal rating, CYPIR (CYPIR (Cyperus iria); rate 0.1250 kg/ha)
3.7: herbicidal rating, SAGPY ([7]; rate 0.1250 kg/ha)
8.7: herbicidal rating, ECHORC ([9]; rate 0.1250 kg/ha)
5.5: Postemergence herbicidal rating, ZEAMX (ZEAMX (Corn, Field) [5]; rate 0.0620 kg/ha)
8.5: ORYSAT preemergence herbicidal rating (ORYSAT (Rice, Tebonnet); Rate 0.2500 kg/ha) | CASOB preemergence herbicidal rating ([12]; Rate 0.2500 kg/ha) | ZEAMX preemergence herbicidal rating (ZEAMX (Corn, Field) [13]; Rate 0.2500 kg/ha) | Postemergence herbicidal rating, GLXMAW ([15]; rate 0.0620 kg/ha)
7.0: herbicidal rating, CYPSE ([3]; rate 0.1250 kg/ha)
4.0: Postemergence herbicidal rating, ECHCG ([16]; rate 0.0620 kg/ha)

CC(=O)N1CCSC1c1nsc2ccc(-n3c(=O)cc(C(F)(F)F)n(C)c3=O)cc12 (stereo not drawn) [Compound 29, 3-acetyl-2-[5-[3,6-dihydro-3-methyl-2,6-dioxo-4-(trifluoromethyl)-1(2H)-pyrimidinyl]-1,2-benzisothiazol-3-yl]thiazolidine]
2.0: TRZAWR preemergence herbicidal rating ([8]; Rate 0.0620 kg/ha) | Postemergence herbicidal rating, ECHCG ([16]; rate 0.0620 kg/ha) | Postemergence herbicidal rating, CASOB ([20]; rate 0.0320 kg/ha)
6.0: herbicidal rating, CYPSE ([3]; rate 0.1250 kg/ha) | Postemergence herbicidal rating, ZEAMX (ZEAMX (Corn, Field) [5]; rate 0.0320 kg/ha) | Postemergence herbicidal rating, ZEAMX (ZEAMX (Corn, Field) [5]; rate 0.0620 kg/ha) | Postemergence herbicidal rating, GALAP (GALAP (Galium aparine) [6]; rate 0.0620 kg/ha)
7.5: IPOHE preemergence herbicidal rating ([4]; Rate 0.1250 kg/ha) | Postemergence herbicidal rating, GLXMAW ([15]; rate 0.0320 kg/ha)
3.0: GALAP preemergence herbicidal rating (GALAP (Galium aparine) [2]; Rate 0.0620 kg/ha)
5.5: ZEAMX preemergence herbicidal rating (ZEAMX (Corn, Field) [13]; Rate 0.0620 kg/ha)
0.0: herbicidal rating, CYPSE ([3]; rate 0.0320 kg/ha) | herbicidal rating, SAGPY ([7]; rate 0.0080 kg/ha) | herbicidal rating, ECHORC ([9]; rate 0.0080 kg/ha) | Postemergence herbicidal rating, ECHCG ([16]; rate 0.0320 kg/ha) | herbicidal rating, CYPIR (CYPIR (Cyperus iria); rate 0.0080 kg/ha)
5.0: ORYSAT preemergence herbicidal rating (ORYSAT (Rice, Tebonnet); Rate 0.1250 kg/ha) | IPOHE preemergence herbicidal rating ([4]; Rate 0.0620 kg/ha) | Postemergence herbicidal rating, CASOB ([20]; rate 0.0620 kg/ha)
7.0: GALAP preemergence herbicidal rating (GALAP (Galium aparine) [2]; Rate 0.1250 kg/ha) | herbicidal rating, ECHORC ([9]; rate 0.0320 kg/ha) | AMBEL preemergence herbicidal rating ([11]; Rate 0.0620 kg/ha) | ZEAMX preemergence herbicidal rating (ZEAMX (Corn, Field) [13]; Rate 0.1250 kg/ha) | ZEAMX preemergence herbicidal rating (ZEAMX (Corn, Field) [13]; Rate 0.2500 kg/ha) | GLXMAW preemergence herbicidal rating ([14]; Rate 0.1250 kg/ha) | herbicidal rating, CYPIR (CYPIR (Cyperus iria); rate 0.0320 kg/ha)
3.5: herbicidal rating, SAGPY ([7]; rate 0.0320 kg/ha) | CASOB preemergence herbicidal rating ([12]; Rate 0.0620 kg/ha)
4.0: ORYSAT preemergence herbicidal rating (ORYSAT (Rice, Tebonnet); Rate 0.0620 kg/ha) | Postemergence herbicidal rating, GALAP (GALAP (Galium aparine) [6]; rate 0.0320 kg/ha)
6.5: ORYSAT preemergence herbicidal rating (ORYSAT (Rice, Tebonnet); Rate 0.2500 kg/ha) | CASOB preemergence herbicidal rating ([12]; Rate 0.1250 kg/ha) | GLXMAW preemergence herbicidal rating ([14]; Rate 0.0620 kg/ha)
9.0: Postemergence herbicidal rating, ABUTH ([1]; rate 0.0320 kg/ha) | Postemergence herbicidal rating, ABUTH ([1]; rate 0.0620 kg/ha) | GALAP preemergence herbicidal rating (GALAP (Galium aparine) [2]; Rate 0.2500 kg/ha) | IPOHE preemergence herbicidal rating ([4]; Rate 0.2500 kg/ha) | herbicidal rating, SAGPY ([7]; rate 0.1250 kg/ha) | herbicidal rating, ECHORC ([9]; rate 0.1250 kg/ha) | CHEAL preemergence herbicidal rating ([10]; Rate 0.0620 kg/ha) | CHEAL preemergence herbicidal rating ([10]; Rate 0.1250 kg/ha) | CHEAL preemergence herbicidal rating ([10]; Rate 0.2500 kg/ha) | AMBEL preemergence herbicidal rating ([11]; Rate 0.2500 kg/ha) | GLXMAW preemergence herbicidal rating ([14]; Rate 0.2500 kg/ha) | Postemergence herbicidal rating, IPOHE ([17]; rate 0.0320 kg/ha) | Postemergence herbicidal rating, IPOHE ([17]; rate 0.0620 kg/ha) | Postemergence herbicidal rating, CHEAL ([18]; rate 0.0320 kg/ha) | Postemergence herbicidal rating, CHEAL ([18]; rate 0.0620 kg/ha) | Postemergence herbicidal rating, AMBEL ([19]; rate 0.0320 kg/ha) | Postemergence herbicidal rating, AMBEL ([19]; rate 0.0620 kg/ha) | herbicidal rating, CYPIR (CYPIR (Cyperus iria); rate 0.1250 kg/ha)
8.0: TRZAWR preemergence herbicidal rating ([8]; Rate 0.1250 kg/ha) | TRZAWR preemergence herbicidal rating ([8]; Rate 0.2500 kg/ha) | AMBEL preemergence herbicidal rating ([11]; Rate 0.1250 kg/ha) | CASOB preemergence herbicidal rating ([12]; Rate 0.2500 kg/ha) | Postemergence herbicidal rating, GLXMAW ([15]; rate 0.0620 kg/ha)
